Key:
[1] = system: mouse sweet receptor (mT1R2+mT1R3); assay: Heterologous calcium mobilization assay, mouse sweet receptor; type: cell-based; conditions: activated by 2.5mM sucralose; inhibitor at ~5-times IC50
PPAR-alpha = conditions: read-out: EC50 for activating PPAR-alpha; cited from earlier work
[2] = system: sweet and umami (MSG) taste; assay: Psychophysical self-experimentation, taste inhibition in vivo; design: species or system human; conditions: self-experimentation by one author; data not shown
human T1R2+T1R3 receptor = biological target: T1, human T1R2+T1R3 receptor (Homo sapiens, UniProt Q7RTX0); assay: Heterologous calcium mobilization assay, human sweet receptor in HEK293 cells; type: cell-based
T1 sequence (Q7RTX0 21-852): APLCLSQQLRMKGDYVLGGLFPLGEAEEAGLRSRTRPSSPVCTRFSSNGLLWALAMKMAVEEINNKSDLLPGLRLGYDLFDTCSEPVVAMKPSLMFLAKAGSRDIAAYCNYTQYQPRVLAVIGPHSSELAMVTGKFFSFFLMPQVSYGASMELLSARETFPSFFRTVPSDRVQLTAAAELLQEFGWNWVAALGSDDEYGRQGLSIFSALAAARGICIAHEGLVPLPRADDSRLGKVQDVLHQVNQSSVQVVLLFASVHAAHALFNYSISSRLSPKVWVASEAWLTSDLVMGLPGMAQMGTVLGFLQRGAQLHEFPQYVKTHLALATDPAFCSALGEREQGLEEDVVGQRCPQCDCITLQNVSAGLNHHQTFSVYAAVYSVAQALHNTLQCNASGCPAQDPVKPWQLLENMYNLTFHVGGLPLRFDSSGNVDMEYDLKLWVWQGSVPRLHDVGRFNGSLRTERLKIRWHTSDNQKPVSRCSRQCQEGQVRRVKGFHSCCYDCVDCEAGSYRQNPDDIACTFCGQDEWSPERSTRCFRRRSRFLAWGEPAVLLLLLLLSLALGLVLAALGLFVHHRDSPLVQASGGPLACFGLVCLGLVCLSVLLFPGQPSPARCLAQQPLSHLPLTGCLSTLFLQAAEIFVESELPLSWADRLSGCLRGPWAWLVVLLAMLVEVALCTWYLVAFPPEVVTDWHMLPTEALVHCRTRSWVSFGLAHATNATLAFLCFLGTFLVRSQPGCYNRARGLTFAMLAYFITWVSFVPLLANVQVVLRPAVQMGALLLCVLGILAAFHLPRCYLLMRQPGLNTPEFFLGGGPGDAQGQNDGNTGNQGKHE
T1 sequence (Q8TE23 20-839 partner): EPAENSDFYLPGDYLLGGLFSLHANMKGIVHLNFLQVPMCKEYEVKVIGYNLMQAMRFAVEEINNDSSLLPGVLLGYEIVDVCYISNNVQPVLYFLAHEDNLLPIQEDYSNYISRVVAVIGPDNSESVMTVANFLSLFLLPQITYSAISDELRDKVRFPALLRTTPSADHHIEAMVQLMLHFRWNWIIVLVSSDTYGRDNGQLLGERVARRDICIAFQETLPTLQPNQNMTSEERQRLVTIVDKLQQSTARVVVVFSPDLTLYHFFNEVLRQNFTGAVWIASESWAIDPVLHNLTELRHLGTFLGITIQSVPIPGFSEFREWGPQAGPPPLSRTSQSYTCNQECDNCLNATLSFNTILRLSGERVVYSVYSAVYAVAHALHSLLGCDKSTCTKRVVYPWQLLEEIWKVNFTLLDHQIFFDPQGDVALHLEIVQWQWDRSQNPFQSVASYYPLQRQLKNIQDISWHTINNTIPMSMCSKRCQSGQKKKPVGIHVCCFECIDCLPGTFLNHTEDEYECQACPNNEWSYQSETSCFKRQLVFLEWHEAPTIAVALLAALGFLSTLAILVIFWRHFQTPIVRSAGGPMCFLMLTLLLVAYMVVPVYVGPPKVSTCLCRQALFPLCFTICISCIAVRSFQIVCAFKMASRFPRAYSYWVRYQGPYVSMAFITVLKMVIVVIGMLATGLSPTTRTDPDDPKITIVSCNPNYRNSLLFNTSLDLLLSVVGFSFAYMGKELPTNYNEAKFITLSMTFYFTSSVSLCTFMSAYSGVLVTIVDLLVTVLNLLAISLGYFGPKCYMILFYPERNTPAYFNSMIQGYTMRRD

With `COc1ccc(OC(C)C(=O)O)cc1` (centres unmarked) [Lactisole, 2-(4-methoxyphenoxy) propanoic acid] the “effect on the mouse sweet receptor” value [1] was “no effect”.

In the case of `CC(C)(Oc1ccc(Cl)cc1)C(=O)O` [Clofibric acid, 2-(4-chlorophenoxy)-2-methylpropanoic acid], the EC50 (PPAR-alpha) is listed as 50 to 55 µM, the “inhibition of sweet taste in vivo” value [2] is listed as “potently inhibited” and the “inhibition of umami (MSG) taste in vivo” value [2] is listed as “potently inhibited”.

For `O=C(O)COc1ccc(Cl)cc1Cl` [2,4D, (2,4-dichlorophenoxy)acetic acid], the IC50 (human T1R2+T1R3 receptor) was 70 µM.

Source: publication PMC2783803 (Journal of medicinal chemistry, 2009)
